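Test compounds were applied to cells in 96-well plates for 48 hours at 5 doses. Abbreviation: GI50, concentration required for 50% inhibition of growth. TGI is the concentration that stops growth completely.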
Key:
Assay in all cases: growth of human tumour cells (NCI), 48 h
NCI-H460 lung = system: NCI-H460 lung
IGROV1 ovarian = system: IGROV1 ovarian
SNB-75 CNS = system: SNB-75 CNS
U251 CNS = system: U251 CNS
OVCAR-5 ovarian = system: OVCAR-5 ovarian
UACC-62 melanoma = system: UACC-62 melanoma
PC-3 prostate = system: PC-3 prostate
RPMI-8226 leukemia = system: RPMI-8226 leukemia
HT29 colon = system: HT29 colon
HCT-15 colon = system: HCT-15 colon

| SMILES | TGI (NCI-H460 lung) [µM] | TGI (IGROV1 ovarian) [µM] | TGI (SNB-75 CNS) [µM] | TGI (U251 CNS) [µM] | TGI (OVCAR-5 ovarian) [µM] | TGI (UACC-62 melanoma) [µM] | TGI (PC-3 prostate) [µM] | TGI (RPMI-8226 leukemia) [µM] | TGI (HT29 colon) [µM] | TGI (HCT-15 colon) [µM] | GI50 (NCI-H460 lung) [µM] | GI50 (IGROV1 ovarian) [µM] | GI50 (SNB-75 CNS) [µM] | GI50 (U251 CNS) [µM] | GI50 (OVCAR-5 ovarian) [µM] | GI50 (UACC-62 melanoma) [µM] | GI50 (PC-3 prostate) [µM] | GI50 (RPMI-8226 leukemia) [µM] | GI50 (HT29 colon) [µM] | GI50 (HCT-15 colon) [µM] |
| --- | --- | --- | --- | --- | --- | --- | --- | --- | --- | --- | --- | --- | --- | --- | --- | --- | --- | --- | --- | --- |
| Cc1ccc2c(c1)CC1(Cc3ccccc3C1=O)C2=O (stereo not given) | > 100 | > 100 | > 100 | > 100 | > 100 | > 100 | > 100 | > 100 | > 100 | > 100 |  |  |  |  |  |  |  |  |  |  |
| CCCCCCCCCCCC(=O)OCC(C[As](=O)(O)O)OC(=O)CCCCCCCCCCC (stereo not given) | 13.3 | 3.5 | 21.1 | 2.93 | 34.1 | 3.95 | 9.52 | > 62 | 20.2 | 25.5 |  |  |  |  |  |  |  |  |  |  |
| COCc1nc2c(OC)c(-c3nc4nc(N5CCN(C)CC5)ccc4[nH]3)cc(OC)c2n1C | 78.8 | > 100 | 64.9 | 61.9 | > 100 | 41.1 | 63.4 | 59.1 | 62 | > 100 |  |  |  |  |  |  |  |  |  |  |
| CN(C(=O)Cc1cccc(N=C=S)c1)[C@H]1CCCC[C@@H]1N1CCCC1 | 36.3 | 28.1 | 27.8 | 32.3 | 36.1 | 29.4 | 32.2 | 32.3 | 26.4 | 31.2 |  |  |  |  |  |  |  |  |  |  |
| O=C1CC(c2cccc([N+](=O)[O-])c2)C2(C(=O)NC(=O)NC2=O)C(c2cccc([N+](=O)[O-])c2)C1 (stereo not given) | > 100 | > 100 | > 100 | > 100 | > 100 | > 100 | > 100 | > 100 | > 100 | > 100 |  |  |  |  |  |  |  |  |  |  |
| O=C(NC(Cc1ccccc1)(Cc1ccc(O)cn1)C(=O)O)c1ccccc1 (stereo not given) | > 100 | > 100 | > 100 | > 100 | > 100 | > 100 | > 100 | > 100 | > 100 | > 100 |  |  |  |  |  |  |  |  |  |  |
| CCOC(=O)c1c(N2CCOCC2)[nH]c(=O)c(C(c2c(Cl)cccc2Cl)c2c(O)c(C(=O)OCC)c(N3CCOCC3)[nH]c2=O)c1O | 45.2 | 15 | 15.6 | 15.8 | 27.5 | 20 | 29.1 | 5.27 | 12.9 | 15.6 |  |  |  |  |  |  |  |  |  |  |
| CO/C=C(/C(=O)OC)c1ccccc1COc1cccc(C(F)(F)F)c1 | > 100 | 47.3 | 64.8 | > 100 | > 100 | 42 | > 100 | 7.31 | > 100 | > 100 |  |  |  |  |  |  |  |  |  |  |
| O=C(NCP(=O)(c1ccccc1)c1ccccc1)OCc1ccccc1 | > 100 | > 100 | > 100 | > 100 | > 100 | > 100 | > 100 | > 100 | > 100 | > 100 |  |  |  |  |  |  |  |  |  |  |
| NNC(=S)N/N=C(/C(=O)Nc1ccc(Cl)c(Cl)c1)C(C1OC(=O)c2ccccc21)[N+](=O)[O-] (stereo not given) | > 100 | > 100 | > 100 | > 100 | > 100 | > 100 | > 100 | > 100 | > 100 | > 100 |  |  |  |  |  |  |  |  |  |  |
| O=c1cc(N2CCCC2)[nH]c(=O)n1-c1cccc(Cl)c1 | > 100 | > 100 | > 100 | > 100 | > 100 | > 100 | > 100 | > 100 | > 100 | > 100 |  |  |  |  |  |  |  |  |  |  |
| COc1ccccc1CNCCCN1C(=O)c2ccc3c4c(ccc(c24)C1=O)C(=O)N(CCCNCCNCCCN)C3=O | 6.47 | 15.9 | 14.8 | 10.1 | 19.8 | 3.82 | 80.2 | > 100 | 11 | 26.8 | 2.08 | 3.69 | 3.07 | 1.17 | 5.24 | 1.68 | 5.91 | 10.9 | 2.07 | 12.2 |
| CC1(C)OC(=O)N(c2ccccc2)C12C=Cc1cc([N+](=O)[O-])ccc1O2 (stereo not given) | > 100 | > 100 | > 100 | > 100 | > 100 | > 100 | > 100 | > 100 | > 100 | > 100 |  |  |  |  |  |  |  |  |  |  |
| CCOC(C)O[C@H]1C(=O)OCC1(C)C (stereo not given in full) | > 100 | > 100 | > 100 | > 100 | > 100 | > 100 | > 100 | > 100 | > 100 | > 100 |  |  |  |  |  |  |  |  |  |  |
| CC(=O)[C@@H](C)C(=O)N1C(=O)OC[C@@]12[C@@H]1CC[C@@H](C1)C2(C)C | > 100 | > 100 | > 100 | > 100 | > 100 | > 100 | > 100 | > 100 | > 100 | > 100 |  |  |  |  |  |  |  |  |  |  |
| C/C(=N/NC(N)=S)c1ccc[nH]1 | > 100 | > 100 | > 100 | > 100 | > 100 | > 100 | > 100 | > 100 | > 100 | > 100 |  |  |  |  |  |  |  |  |  |  |
| CCc1cc(Cc2cc(CC)c(NC(=O)C(=O)CC(=O)c3sc(-c4cccnc4)nc3C)c(CC)c2)cc(CC)c1NC(=O)C(=O)CC(=O)c1sc(-c2cccnc2)nc1C | > 100 | > 100 | > 100 | > 100 | > 100 | > 100 | > 100 | > 100 | > 100 | > 100 |  |  |  |  |  |  |  |  |  |  |
| O=C(N/N=C\C=C\c1ccc([N+](=O)[O-])o1)C(=O)N/N=C\C=C\c1ccc([N+](=O)[O-])o1 | > 100 | > 100 | > 100 | > 100 | > 100 | > 100 | > 100 | > 100 | > 100 | > 100 |  |  |  |  |  |  |  |  |  |  |
| CCOC(=O)c1cn2c(n1)sc1cc(Cl)ccc12 | > 100 | > 100 | > 100 | 60.7 | > 100 | > 100 | > 100 | > 100 | > 100 | > 100 |  |  |  |  |  |  |  |  |  |  |
| C=C(C)[C@H]1Cc2c(ccc3c2O[C@@H]2COc4cc(OC)c(OC)cc4[C@@H]2C3=O)O1 | 15.8 | > 100 | 60.5 | 30.9 | > 100 | 44.7 | 47.5 | 8.84 | 4.09 | 40.4 |  |  |  |  |  |  |  |  |  |  |
| O=C1c2ccccc2C(=O)N1CCCCNOCCCN1C(=O)c2ccccc2C1=O | > 100 | > 100 | > 100 | > 100 | > 100 | > 100 | > 100 | > 100 | > 100 | > 100 |  |  |  |  |  |  |  |  |  |  |
| N#Cc1c(-c2ccccc2)[nH]c2ccc(Cl)cc2c1=O | > 100 | > 100 | > 100 | 75.9 | > 100 | > 100 | > 100 | > 100 | > 100 | > 100 |  |  |  |  |  |  |  |  |  |  |
| CC1(C)C[C@@H]2C1CCC1(C)CC2(O)CC[C@H]1O (stereo not given in full) | > 100 | > 100 | > 100 | > 100 | > 100 | > 100 | > 100 | > 100 | > 100 | > 100 |  |  |  |  |  |  |  |  |  |  |
| CCCc1c(O)nc(Nc2nc3ccccc3[nH]2)[nH]c1=O | > 100 | > 100 | > 100 | > 100 | > 100 | > 100 | > 100 | > 100 | > 100 | > 100 |  |  |  |  |  |  |  |  |  |  |
| COC(=O)c1cc2c(cc1CC(Cc1ccc3c(c1)CCCC3)C(=O)OC)CCCC2 (stereo not given) | > 100 | > 100 | > 100 | > 100 | > 100 | > 100 | > 100 | 91.4 | > 100 | > 100 |  |  |  |  |  |  |  |  |  |  |
| CN(C)CCCN=c1c2ccccc2n(O)c2ccccc12 | > 100 | > 100 | > 100 | > 100 | > 100 | > 100 | > 100 | > 100 | 28.8 | > 100 |  |  |  |  |  |  |  |  |  |  |
| Nc1nc(-c2ccccc2)cc(-c2ccc(OCc3ccccc3)cc2O)n1 | > 100 | > 100 | > 100 | > 100 | > 100 | > 100 | > 100 | 60.9 | > 100 | > 100 |  |  |  |  |  |  |  |  |  |  |
| O=c1c2ccccc2nc(Cc2nc(-c3ccc(Cl)cc3)cs2)n1-c1ccc(Cl)cc1 | > 100 | > 100 | > 100 | > 100 | > 100 | > 100 | > 100 | 83.9 | > 100 | > 100 |  |  |  |  |  |  |  |  |  |  |
